Measurements published in US9242975B2, “Heterocyclic-substituted pyridyl compounds useful as kinase inhibitors” (Bristol-Myers Squibb Company, priority 2012, dated 2016).

Biological target: IRAK4 (Homo sapiens (Human), UniProt Q9NWZ3)
Experiment: IRAK4 Inhibition Assay
Format: biochemical
Settings: ATP 500 μM; FL-IPTSPITTTYFFFKKK peptide 1.5 μM; IRAK4 0.6 nM; 60 min at room temperature; Caliper LabChip 3000
Experimental: The assays were performed in U-bottom 384-well plates. The final assay volume was 30 μL prepared from 15 μL additions of enzyme and substrates (fluoresceinated peptide and ATP) and test compounds in assay buffer (20 mM HEPES pH 7.2, 10 mM MgCl2, 0.015% Brij35 and 4 mM DTT). The reaction was initiated by the combination of IRAK4 with substrates and test compounds. The reaction was incubated at room temperature for 60 min. and terminated by adding 45 μL of 35 mM EDTA to each sample. The reaction mixture was analyzed on the Caliper LabChip 3000 (Caliper, Hopkinton, Mass.) by electrophoretic separation of the fluorescent substrate and phosphorylated product. Inhibition data were calculated by comparison to no enzyme control reactions for 100% inhibition and vehicle-only reactions for 0% inhibition. The final concentrations of reagents in the assays are ATP, 500 μM; FL-IPTSPITTTYFFFKKK peptide 1.5 μM; IRAK4, 0.6 nM; and DMSO, 1.6%.

Chain of IRAK4 (Q9NWZ3 whole entry): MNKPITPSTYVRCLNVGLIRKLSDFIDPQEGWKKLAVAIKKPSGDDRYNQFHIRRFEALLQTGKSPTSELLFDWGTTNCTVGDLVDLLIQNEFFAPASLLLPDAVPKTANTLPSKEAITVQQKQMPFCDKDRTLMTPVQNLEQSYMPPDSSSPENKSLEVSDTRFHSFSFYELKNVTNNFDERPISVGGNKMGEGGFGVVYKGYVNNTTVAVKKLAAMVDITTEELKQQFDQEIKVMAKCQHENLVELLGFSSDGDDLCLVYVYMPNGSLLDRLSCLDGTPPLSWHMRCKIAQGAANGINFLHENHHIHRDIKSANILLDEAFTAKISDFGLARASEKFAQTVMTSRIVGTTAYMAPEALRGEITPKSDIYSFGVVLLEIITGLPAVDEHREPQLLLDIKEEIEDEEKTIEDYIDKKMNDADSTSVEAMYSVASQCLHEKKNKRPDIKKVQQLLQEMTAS

IC50: 1.8 nM
SMILES: CNC(=O)c1nc(-c2cnc(Nc3ccc4ncsc4c3)cc2NC(C)C)sc1C [Example 27, 2-(6-(benzo[d]thiazol-6-ylamino)-4-(isopropylamino)pyridin-3-yl)-N,5-dimethylthiazole-4-carboxamide]
